In article PMC9232636, “Insights into the mechanism of action of the arbitrium communication system in SPbeta phages” (Nature Communications, 2022):
Entries after “also recorded” stand apart in the source; their conditions may differ.

What was measured:
AimR^Kat-N273A [1] = biological target: T1, AimR^Kat-N273A (Bacillus subtilis, UniProt A0A8I3AZZ2, N274A); experiment: Thermal shift assay of AimR^Kat-N273A with peptides; assay type: binding, Katmira phage; conditions: ThermoFluor
Experimental: (§1) The thermal shift assay was conducted in a 7500 Fast Real time PCR System (Applied Biosystems) as previously described. Briefly, samples of 20 μl buffer (20 mM Tris pH 8 and 250 mM NaCl) containing 5× Sypro Orange (Sigma-Aldrich) and 20 μM of protein were loaded in 96-well PCR plates. To calculate the Tm in the presence of the peptide, 0.5 μM of GMPRGA or GIVRGA peptide was added to the mixture. Samples were heated from 25 to 85 °C in steps of one degree. Fluorescent intensity was plotted versus temperature and integrated with GraphPad Prism software using a Boltzmann model to calculate melting temperatures.

AimR^Kat-DNA interaction = experiment: EMSA, peptide-induced release of AimR^Kat from its DNA operator; assay type: biochemical, Katmira phage; conditions: protein preincubated with 0.5 μM peptide 10 min, repeated three times
Experimental: (§2) AimR binding to its operator and the inhibition induced by the arbitrium peptide was analysed by native polyacrylamide and agarose gel electrophoresis. Double strand DNA primer probes were purchased from Macrogen. DNA (10 ng µl^−1) and AimR (from 0.5 μM) protein was mixed in EMSA buffer (50 mM tris pH8, 250 mM NaCl). The samples were incubated for 10 min at room temperature. For peptide inhibition assay, protein was preincubated with 0.5 μM peptide for 10 min before DNA addition. Electrophoresis was then performed in 8% polyacrylamide gels in Tris-Borate-EDTA (TBE) buffer for about 150 min at 100 V at 4 °C.

[2] = system: SPβ ΔaimR prophage complemented with AimR^SPβ; experiment: Prophage induction and phage titering, SPβ ΔaimR complemented with AimR^SPβ; assay type: cell-based, phage SPβ in B. subtilis; conditions: for phage titer: JP 20223, 5 μM peptide, MC induced
Experimental: For induction, an overnight culture was diluted 1/100 in LB media supplemented with 0.1 mM MnCl2 and 5 mM MgCl2 and then grown at 37 °C with 210 rpm shaking until reaching absorbance 0.2 at 600 nm. This step was repeated twice to ensure the cells were in exponential growth. After the second growth, Mitomycin C (MC) at 0.5 μg ml^−1 was added to the culture. Where experiments were performed to test the effect of peptide on phage titre, 5 μM of the relevant peptide was added before starting the second growth to ensure the bacteria cells were able to incorporate the peptide. The induced cultures were incubated at 30 °C with 80 rpm shaking for 4 h and then left overnight at room temperature. Following lysis, samples were filtered using 0.2 μm filters and lysates were stored at 4 °C until use.
The number of phage particles contained in the phage lysate of interest was quantified by a titering assay. An overnight culture of the relevant recipient strain (normally B. subtilis ∆6 or with the corresponding plasmid) was diluted 1/100 in LB supplemented with 0.1 mM MnCl2 and 5 mM MgCl2 and then grown at 37 °C with 210 rpm shaking until reaching absorbance 0.2 at 600 nm. When required 1 mM IPTG was added. Then, 100 μl of recipient bacteria was infected with 100 μl of serial dilutions of phage lysate in phage buffer (PhB; 1 mM NaCl, 0.05 M Tris pH 7.8, 0.1 mM MnCl2, 5 mM MgCl2) at room temperature for 10 min and 3 ml of phage top agar (LB media supplemented with 0.1 mM MnCl2 and 5 mM MgCl2 and 0.7 % agar) at 55 °C was added to the culture-phage mix and immediately poured over phage base agar plates (LB media supplemented with 0.1 mM MnCl2 and 5 mM MgCl2 and 1.5% agar). Plaques were counted after overnight growth at 37 °C temperature and photographed.

[3] = system: AimR^Kat-N273A-DNA interaction; experiment: EMSA, peptide-induced release of AimR^Kat-N273A from its target DNA; assay type: biochemical, Katmira phage; conditions: protein preincubated with 0.5 μM peptide 10 min, repeated three times
Experimental: as §2

AimR^Kat = biological target: T2, AimR^Kat (Bacillus subtilis (Katmira prophage), UniProt A0A8I3AZZ2); assay type: binding, Katmira phage; conditions: for Tm: Supplementary Fig. 5a, peptides at 0.5mM; for effect on Tm / stabilisation (in words): ThermoFluor
T2 sequence (A0A8I3AZZ2 2-387): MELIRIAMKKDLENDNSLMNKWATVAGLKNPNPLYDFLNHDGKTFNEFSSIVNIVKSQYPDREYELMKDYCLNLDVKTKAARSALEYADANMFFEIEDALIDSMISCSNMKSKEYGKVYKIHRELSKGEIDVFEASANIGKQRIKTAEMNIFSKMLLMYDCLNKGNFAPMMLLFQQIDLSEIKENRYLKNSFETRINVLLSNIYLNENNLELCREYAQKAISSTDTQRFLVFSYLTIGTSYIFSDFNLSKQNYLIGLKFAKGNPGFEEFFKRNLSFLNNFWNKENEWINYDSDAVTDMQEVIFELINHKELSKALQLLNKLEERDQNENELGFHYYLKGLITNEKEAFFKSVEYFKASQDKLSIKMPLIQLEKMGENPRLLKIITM
Experimental: as §1, with “To calculate the Tm in the presence of the peptide, 0.5 μM of GMPRGA or GIVRGA peptide was added to the mixture.” left out

AimR^SPβ = conditions: previously reported; cited from earlier work
AimR^Kat-N273A [4] = biological target: T1, AimR^Kat-N273A; experiment: ITC, AimP binding to AimR^Kat-N273A; design: species or system Katmira phage; conditions: 25 °C, 25 mM Tris-HCl pH 8, 250 mM NaCl
Experimental: ITC assays were carried out in a Nano ITC Low Volume (TA instruments). In the assays, proteins (AimR^Kat or AimR^Kat-N273A) and peptides concentration were 10 and 50 μM, respectively, and both were diluted in buffer 25 mM Tris-HCl pH 8, 250 mM NaCl. The experiments were performed at 25 °C. The data obtained was integrated, corrected and analysed using the NanoAnalyze software (TA Instruments) with a single-site or two-site binding models.

Substance	stabilisation / binding capacity (in words) (AimR^Kat-N273A [1])	release of AimR^Kat from DNA (AimR^Kat-DNA interaction)	release of AimR^Kat from DNA (AimR^Kat-DNA interaction; listed as GMPRGA)	phage titer ([2]; repeat 1) [pfu/ml]	phage titer ([2]; repeat 2) [pfu/ml]	phage titer ([2]; repeat 3) [pfu/ml]	phage titer ([2]; repeat 4) [pfu/ml]	phage titer ([2]; repeat 5) [pfu/ml]	phage titer ([2]; repeat 6) [pfu/ml]	phage titer ([2]; repeat 7) [pfu/ml]	reduction of phage titre ([2]; MC 0.5 μg/ml, 5 μM peptide, compared with no peptide) [times]	release of AimR^Kat-N273A from DNA [3]	Tm (AimR^Kat)	effect on Tm / stabilisation (in words) (AimR^Kat)	increase of Tm (AimR^SPβ) [°C]	release of AimR^Kat from DNA (AimR^Kat-DNA interaction; listed as SAIRGA)	binding by ITC (in words) (AimR^Kat-N273A [4])
GMPRGA [AimP^SPβ, the SPβ AimP peptide]	stabilises AimR^Kat-N273A	only AimP^Kat for the wt form	neither GMPRGA (AimP^SPβ) nor SAIRGA (the phi3T AimP peptide, AimP^Phi) (Fig. 1b) affected AimR^Kat in its ability to recognise its cognate DNA box	7.90E+08	9.60E+07	2.12E+09	6.30E+07	8.90E+07	2.90E+08	7.80E+07	10	induce DNA releases for the N273A mutant form of AimR^Kat; also recorded: able to induce the release of AimR^Kat-N273A from its target DNA	43 ºC	did not have any effect	10		
SAIRGA [AimP^Phi, the phi3T AimP peptide]		insensitive										insensitive	43 ºC	did not have any effect		neither GMPRGA (AimP^SPβ) nor SAIRGA (the phi3T AimP peptide, AimP^Phi) (Fig. 1b) affected AimR^Kat in its ability to recognise its cognate DNA box	unable to bind
